Assay results reported in ChEMBL document CHEMBL3886358, “Quinolyl-containing hydroxamic acid compound and preparation method thereof, and pharmaceutical composition containing this compound and use thereof” (2015).

What was measured:
Histone deacetylase 2 = Histone deacetylase 2 (Homo sapiens, UniProt Q92769); assay: (§1) Inhibition Assay: The inhibitions of activities of HDAC enzymes by the compounds N1'-[3-fluoro-4-[[7-[4-(hydroxyamino)-4-oxobutoxy]-6-methoxy-4-quinolyl]oxy]phenyl]-N1-(4-fluoro phenyl)cyclopropane-1,1-dicarboxamide prepared in Example 9 and N1'-[3-fluoro-4-[[7-[6-(hydroxyamino)-6-oxohexyloxy]-6-methoxy-4-quinolyl]oxy]phenyl]-N1-(4-fluo rophenyl)cyclopropane-1,1-dicarboxamide prepared in Example 13 were measured by Reaction Biology Corporation (Reaction Biology Corp., One Great Valley Parkway, Suite 2, Malvern, PA 19355, USA . http://www.reactionbiology.com/pages/hdac.htm). The HDAC enzymes tested include the following 11 HDAC isoforms: HDAC1, HDAC2, HDAC3, HDAC4, HDAC5, HDAC6, HDAC7, HDAC8, HDAC9, HDAC10 and HDAC11.Specific steps were as follows: The compound of the present invention was dissolved in dimethyl sulfoxide (DMSO) to make a stock solution of 10 mM. The stock solution was diluted in 4-fold series starting from 10 mM to prepare 10 different dosages.
Chain of Histone deacetylase 2 (Q92769 whole entry, canonical isoform): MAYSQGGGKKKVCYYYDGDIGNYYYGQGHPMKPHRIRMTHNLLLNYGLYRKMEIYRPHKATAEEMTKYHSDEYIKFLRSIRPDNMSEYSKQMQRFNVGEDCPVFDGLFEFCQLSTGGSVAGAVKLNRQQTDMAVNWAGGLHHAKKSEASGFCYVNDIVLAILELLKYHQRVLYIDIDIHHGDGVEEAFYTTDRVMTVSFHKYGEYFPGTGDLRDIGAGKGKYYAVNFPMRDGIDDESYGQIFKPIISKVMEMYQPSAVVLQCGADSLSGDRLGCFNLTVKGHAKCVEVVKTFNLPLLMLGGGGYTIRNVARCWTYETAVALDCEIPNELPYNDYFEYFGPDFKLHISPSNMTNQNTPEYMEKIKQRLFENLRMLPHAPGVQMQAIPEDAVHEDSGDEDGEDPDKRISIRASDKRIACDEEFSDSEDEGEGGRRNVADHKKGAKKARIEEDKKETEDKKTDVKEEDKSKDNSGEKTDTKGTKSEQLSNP

Histone deacetylase 3 = Histone deacetylase 3 (Homo sapiens, UniProt O15379); assay: as §1
Chain of Histone deacetylase 3 (O15379 whole entry): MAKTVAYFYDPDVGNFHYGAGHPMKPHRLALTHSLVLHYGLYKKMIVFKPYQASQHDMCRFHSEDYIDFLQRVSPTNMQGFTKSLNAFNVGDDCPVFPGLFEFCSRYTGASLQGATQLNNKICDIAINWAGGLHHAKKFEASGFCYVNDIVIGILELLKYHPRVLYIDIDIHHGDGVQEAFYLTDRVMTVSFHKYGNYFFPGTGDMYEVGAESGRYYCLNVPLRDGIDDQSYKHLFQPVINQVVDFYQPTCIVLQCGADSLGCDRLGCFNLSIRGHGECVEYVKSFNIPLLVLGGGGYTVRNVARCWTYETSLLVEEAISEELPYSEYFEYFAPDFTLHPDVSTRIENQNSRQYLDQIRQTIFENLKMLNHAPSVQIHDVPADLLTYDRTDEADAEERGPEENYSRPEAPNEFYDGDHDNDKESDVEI

Histone deacetylase 1 = Histone deacetylase 1 (Homo sapiens, UniProt Q13547); assay: as §1
Chain of Histone deacetylase 1 (Q13547 whole entry): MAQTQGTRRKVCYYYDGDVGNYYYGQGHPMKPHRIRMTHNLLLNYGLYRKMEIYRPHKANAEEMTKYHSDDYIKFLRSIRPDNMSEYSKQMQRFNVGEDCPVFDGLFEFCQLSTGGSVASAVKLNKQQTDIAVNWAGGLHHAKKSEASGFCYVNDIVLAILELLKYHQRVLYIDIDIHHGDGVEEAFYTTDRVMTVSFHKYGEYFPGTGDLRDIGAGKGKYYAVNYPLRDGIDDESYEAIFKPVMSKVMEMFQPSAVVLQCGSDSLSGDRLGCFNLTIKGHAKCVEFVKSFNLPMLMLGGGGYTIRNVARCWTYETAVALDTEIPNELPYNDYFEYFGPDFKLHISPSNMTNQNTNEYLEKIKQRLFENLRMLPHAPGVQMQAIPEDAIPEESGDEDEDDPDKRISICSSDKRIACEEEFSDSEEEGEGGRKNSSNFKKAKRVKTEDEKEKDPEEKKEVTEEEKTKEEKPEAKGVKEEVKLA

Histone deacetylase 11 = target: T1, Histone deacetylase 11 (Homo sapiens, UniProt Q96DB2); assay: as §1
T1 sequence (Q96DB2 whole entry): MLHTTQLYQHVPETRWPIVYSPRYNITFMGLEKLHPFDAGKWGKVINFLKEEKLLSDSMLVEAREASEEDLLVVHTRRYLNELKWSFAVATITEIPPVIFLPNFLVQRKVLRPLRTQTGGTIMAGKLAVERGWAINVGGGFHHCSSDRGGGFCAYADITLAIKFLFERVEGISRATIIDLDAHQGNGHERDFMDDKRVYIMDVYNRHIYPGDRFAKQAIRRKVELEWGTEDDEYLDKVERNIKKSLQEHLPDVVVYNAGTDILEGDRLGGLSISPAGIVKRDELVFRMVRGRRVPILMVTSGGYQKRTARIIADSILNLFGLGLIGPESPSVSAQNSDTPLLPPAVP

[1] = target: T2, Polyamine deacetylase HDAC10 (Homo sapiens, UniProt Q969S8); assay: as §1
T2 sequence (Q969S8 whole entry): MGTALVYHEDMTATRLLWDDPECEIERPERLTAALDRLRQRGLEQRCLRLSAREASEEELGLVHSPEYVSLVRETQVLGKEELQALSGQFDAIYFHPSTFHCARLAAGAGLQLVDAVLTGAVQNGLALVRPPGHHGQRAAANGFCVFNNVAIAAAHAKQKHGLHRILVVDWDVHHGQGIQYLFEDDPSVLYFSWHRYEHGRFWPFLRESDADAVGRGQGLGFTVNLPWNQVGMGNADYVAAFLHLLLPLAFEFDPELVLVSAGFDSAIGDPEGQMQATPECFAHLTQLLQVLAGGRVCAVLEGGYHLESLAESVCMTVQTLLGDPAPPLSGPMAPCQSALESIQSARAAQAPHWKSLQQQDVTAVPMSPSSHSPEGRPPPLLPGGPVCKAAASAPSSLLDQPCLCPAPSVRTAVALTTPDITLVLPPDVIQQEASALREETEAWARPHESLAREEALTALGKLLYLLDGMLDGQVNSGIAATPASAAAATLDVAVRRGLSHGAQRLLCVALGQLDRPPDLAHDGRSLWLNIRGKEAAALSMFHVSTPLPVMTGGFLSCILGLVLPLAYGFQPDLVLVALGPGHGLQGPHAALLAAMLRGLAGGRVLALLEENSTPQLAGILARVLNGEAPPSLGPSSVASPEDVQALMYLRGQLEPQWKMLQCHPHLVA

Histone deacetylase 4 = Histone deacetylase 4 (Homo sapiens, UniProt P56524); assay: as §1
Chain of Histone deacetylase 4 (P56524 whole entry): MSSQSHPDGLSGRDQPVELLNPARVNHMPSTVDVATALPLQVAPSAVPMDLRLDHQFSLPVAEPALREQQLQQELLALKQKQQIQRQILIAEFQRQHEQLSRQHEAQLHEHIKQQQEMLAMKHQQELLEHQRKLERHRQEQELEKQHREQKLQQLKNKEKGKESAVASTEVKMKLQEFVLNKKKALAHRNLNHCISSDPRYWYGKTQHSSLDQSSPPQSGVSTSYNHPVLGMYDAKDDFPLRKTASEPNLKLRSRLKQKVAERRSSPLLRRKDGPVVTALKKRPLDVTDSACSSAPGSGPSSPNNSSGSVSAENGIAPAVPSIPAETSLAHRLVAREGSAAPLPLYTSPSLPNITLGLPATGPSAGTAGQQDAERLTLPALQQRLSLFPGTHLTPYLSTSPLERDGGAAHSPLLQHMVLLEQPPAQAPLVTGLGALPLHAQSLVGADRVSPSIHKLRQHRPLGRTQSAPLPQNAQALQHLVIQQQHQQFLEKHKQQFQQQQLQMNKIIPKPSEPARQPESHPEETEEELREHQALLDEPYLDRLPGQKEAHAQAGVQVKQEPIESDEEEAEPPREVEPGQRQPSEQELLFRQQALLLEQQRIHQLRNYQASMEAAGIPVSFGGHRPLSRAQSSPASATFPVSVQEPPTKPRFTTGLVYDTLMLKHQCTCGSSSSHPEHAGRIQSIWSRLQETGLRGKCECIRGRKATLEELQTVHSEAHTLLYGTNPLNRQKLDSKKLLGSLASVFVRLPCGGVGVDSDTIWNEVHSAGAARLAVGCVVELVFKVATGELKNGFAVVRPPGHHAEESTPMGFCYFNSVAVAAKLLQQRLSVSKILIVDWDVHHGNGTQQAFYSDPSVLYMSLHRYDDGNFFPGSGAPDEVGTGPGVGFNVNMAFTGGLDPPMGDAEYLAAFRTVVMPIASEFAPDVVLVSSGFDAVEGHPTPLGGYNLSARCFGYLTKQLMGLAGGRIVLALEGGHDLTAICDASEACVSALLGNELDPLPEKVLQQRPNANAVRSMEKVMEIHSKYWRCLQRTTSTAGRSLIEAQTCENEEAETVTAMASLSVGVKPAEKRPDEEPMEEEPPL

Histone deacetylase 9 = Histone deacetylase 9 (Homo sapiens, UniProt Q9UKV0); assay: as §1
Chain of Histone deacetylase 9 (Q9UKV0 whole entry): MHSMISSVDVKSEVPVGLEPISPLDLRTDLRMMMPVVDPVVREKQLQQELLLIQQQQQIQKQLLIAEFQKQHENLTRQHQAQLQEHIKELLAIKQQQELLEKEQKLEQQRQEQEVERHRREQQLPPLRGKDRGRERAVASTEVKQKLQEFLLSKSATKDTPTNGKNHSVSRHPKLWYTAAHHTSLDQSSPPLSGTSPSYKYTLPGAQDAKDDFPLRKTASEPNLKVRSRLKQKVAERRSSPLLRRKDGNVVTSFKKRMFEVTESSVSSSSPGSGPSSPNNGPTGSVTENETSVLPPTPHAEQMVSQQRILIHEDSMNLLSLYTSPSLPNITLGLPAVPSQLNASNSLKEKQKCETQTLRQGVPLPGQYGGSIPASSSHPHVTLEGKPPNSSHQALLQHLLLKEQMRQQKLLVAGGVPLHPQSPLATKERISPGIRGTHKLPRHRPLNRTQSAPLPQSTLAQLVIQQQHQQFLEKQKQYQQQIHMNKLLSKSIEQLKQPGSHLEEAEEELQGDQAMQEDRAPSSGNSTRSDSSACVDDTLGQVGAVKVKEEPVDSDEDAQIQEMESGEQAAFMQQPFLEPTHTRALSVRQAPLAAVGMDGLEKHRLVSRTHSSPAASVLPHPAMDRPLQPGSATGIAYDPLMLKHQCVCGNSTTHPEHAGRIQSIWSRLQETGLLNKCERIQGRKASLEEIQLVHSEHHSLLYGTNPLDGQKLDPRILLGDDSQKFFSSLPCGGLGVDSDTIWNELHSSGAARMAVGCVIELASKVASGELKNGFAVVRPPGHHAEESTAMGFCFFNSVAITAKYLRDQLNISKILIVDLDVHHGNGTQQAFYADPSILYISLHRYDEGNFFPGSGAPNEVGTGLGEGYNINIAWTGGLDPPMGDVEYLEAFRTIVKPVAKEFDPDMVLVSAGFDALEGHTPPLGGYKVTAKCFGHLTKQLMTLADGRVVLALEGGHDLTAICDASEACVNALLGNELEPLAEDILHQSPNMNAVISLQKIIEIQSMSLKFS

[2] = target: Proto-oncogene tyrosine-protein kinase receptor Ret (Homo sapiens, UniProt P07949); assay: (§2) Sci. USA 1988, 85(23), 9312). Specific steps were as follows: The compound of the present invention was dissolved in dimethyl sulfoxide (DMSO) to make a stock solution of 2 mM, then the stock solution was diluted with DMSO following a 7 half-log series to concentrations ranging from 2 uM to 600 pM.; type: cell-based
[3] = target: Platelet-derived growth factor receptor beta (Homo sapiens, UniProt P09619); assay: as §2; type: cell-based
Chain of Platelet-derived growth factor receptor beta (P09619 whole entry): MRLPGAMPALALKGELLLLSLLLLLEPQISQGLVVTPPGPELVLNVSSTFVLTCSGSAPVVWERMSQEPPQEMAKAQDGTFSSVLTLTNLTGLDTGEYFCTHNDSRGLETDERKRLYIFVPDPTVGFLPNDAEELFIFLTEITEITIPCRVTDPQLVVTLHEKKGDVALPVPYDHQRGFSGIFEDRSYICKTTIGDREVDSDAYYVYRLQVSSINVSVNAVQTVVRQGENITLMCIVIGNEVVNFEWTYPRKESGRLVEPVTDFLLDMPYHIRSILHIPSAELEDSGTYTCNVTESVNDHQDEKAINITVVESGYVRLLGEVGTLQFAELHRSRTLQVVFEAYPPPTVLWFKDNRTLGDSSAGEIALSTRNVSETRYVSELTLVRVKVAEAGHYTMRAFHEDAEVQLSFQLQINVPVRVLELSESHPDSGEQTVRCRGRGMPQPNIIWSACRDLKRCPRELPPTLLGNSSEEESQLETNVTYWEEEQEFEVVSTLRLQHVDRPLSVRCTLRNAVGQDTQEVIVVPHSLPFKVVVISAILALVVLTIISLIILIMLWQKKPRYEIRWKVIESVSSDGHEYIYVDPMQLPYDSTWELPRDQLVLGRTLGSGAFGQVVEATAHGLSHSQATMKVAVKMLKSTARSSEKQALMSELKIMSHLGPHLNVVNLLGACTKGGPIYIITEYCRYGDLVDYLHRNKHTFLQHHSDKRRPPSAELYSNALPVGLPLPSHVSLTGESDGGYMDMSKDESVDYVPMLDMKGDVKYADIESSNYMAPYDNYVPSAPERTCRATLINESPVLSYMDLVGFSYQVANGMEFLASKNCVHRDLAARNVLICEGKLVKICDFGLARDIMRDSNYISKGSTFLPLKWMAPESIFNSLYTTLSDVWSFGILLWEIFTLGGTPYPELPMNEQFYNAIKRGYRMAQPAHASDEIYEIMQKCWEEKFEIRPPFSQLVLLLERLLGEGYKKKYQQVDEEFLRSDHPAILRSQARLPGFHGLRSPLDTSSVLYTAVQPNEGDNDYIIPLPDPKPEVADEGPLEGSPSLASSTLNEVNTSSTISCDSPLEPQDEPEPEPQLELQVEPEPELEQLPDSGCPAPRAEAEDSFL

[4] = target: T3, Receptor-type tyrosine-protein kinase FLT3 (Homo sapiens, UniProt P36888); assay: as §2; type: cell-based
T3 sequence (P36888 whole entry): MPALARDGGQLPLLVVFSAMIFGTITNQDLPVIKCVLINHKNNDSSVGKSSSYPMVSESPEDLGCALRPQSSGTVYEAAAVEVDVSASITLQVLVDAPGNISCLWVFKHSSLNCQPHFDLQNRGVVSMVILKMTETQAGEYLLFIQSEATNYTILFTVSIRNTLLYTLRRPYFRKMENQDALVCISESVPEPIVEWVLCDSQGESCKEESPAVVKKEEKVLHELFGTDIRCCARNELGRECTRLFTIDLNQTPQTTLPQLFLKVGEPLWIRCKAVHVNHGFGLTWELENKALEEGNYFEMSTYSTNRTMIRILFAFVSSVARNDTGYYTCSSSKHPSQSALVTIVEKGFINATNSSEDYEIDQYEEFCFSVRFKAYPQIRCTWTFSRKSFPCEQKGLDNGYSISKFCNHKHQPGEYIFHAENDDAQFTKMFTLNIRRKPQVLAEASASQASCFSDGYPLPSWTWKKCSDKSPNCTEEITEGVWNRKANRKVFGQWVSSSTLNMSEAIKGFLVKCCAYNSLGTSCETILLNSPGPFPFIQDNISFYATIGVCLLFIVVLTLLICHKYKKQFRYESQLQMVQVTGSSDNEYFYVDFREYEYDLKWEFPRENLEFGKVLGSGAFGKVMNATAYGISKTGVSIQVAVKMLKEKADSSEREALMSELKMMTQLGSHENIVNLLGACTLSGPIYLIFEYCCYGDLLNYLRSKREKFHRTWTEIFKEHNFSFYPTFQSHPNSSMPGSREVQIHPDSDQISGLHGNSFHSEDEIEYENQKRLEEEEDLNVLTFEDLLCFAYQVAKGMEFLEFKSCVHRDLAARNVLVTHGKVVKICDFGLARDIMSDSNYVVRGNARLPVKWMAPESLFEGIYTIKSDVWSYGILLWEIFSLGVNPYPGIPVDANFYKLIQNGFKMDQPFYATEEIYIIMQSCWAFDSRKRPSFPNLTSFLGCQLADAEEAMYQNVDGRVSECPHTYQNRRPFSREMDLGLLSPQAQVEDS

[5] = target: Proto-oncogene tyrosine-protein kinase Src (Homo sapiens, UniProt P12931); assay: as §2; type: cell-based

IC50 [2]	IC50 [3]	IC50 [4]	IC50 [5]	Compound	IC50 (Histone deacetylase 2)	IC50 (Histone deacetylase 3)	IC50 (Histone deacetylase 1)	IC50 (Histone deacetylase 11)	IC50 [1]	IC50 (Histone deacetylase 4)	IC50 (Histone deacetylase 9)
–	–	–	–	COc1cc2c(Oc3ccc(NC(=O)C4(C(=O)Nc5ccc(F)cc5)CC4)cc3F)ccnc2cc1OCCCCCC(=O)NO	2.74 µM	> 10 µM	> 10 µM	6.13 µM	11.9 µM	> 10 µM	> 10 µM
0.154 µM	0.172 µM	0.031 µM	> 0.63 µM	COc1cc2c(Oc3ccc(NC(=O)C4(C(=O)Nc5ccc(F)cc5)CC4)cc3F)ccnc2cc1OCCCC(=O)NO	0.431 µM	> 10 µM	> 10 µM	> 10 µM	> 10 µM	> 10 µM	> 10 µM
